From PMC6030077, “Dual role of HDAC10 in lysosomal exocytosis and DNA repair promotes neuroblastoma chemoresistance” (Scientific Reports, 2018)
Entries after “also recorded” stand apart in the source; their conditions may differ.

Experiments:
[1] = tested on: HDACs 1–3; experiment: Western blot analysis of histone H3 acetylation; format: cell-based, human; conditions: 1 mM, 6 h
Protocol: Western blot analysis was performed as previously described. […] (b) Western blot analysis of histone H3 […] class IIb HDAC inhibitor tubastatin A, respectively. Numbers below blot indicate histone H3 acetylation normalized to total histone H3 expression and relative to DMSO treated control. Bands of indicated proteins were developed on the same blot. (c) Flow cytometric analysis of LysoTracker DND-99 staining in BE(2)-C cells 24h after treatment with class I HDAC inhibitor VPA and class IIb HDAC inhibitor tubastatin A. Statistical analyses were performed on non-normalized data using paired, two-tailed t-test (***p < 0.001; **0.001 ≤ p < 0.01; *0.01 ≤ p < 0.05). Error bars represent SEM. 3 (1 picture or pasted object on this page, not shown here)

[2] = tested on: BE(2)-C cells; experiment: Flow cytometric analysis of LysoTracker DND-99 staining (lysosomal accumulation); format: cell-based, human; conditions: for lysosomal accumulation (LysoTracker staining): 24 h, bufexamac 30 µM, tubastatin A 7.5 µM, tubacin 7.5 µM, VPA 1 mM, vacuolin-1 10 µM
Protocol: Six days after siRNA transfection or 24 h after treatment with HDAC or lysosomal inhibitors, cells were stained for 1 h with 50 nM LysoTracker® Red DND-99 in medium under standard cell culture conditions. Cells were washed with ice-cold RPMI w/o phenol-red and detached using Trypsin/EDTA for 3 minutes at 37 °C. Cells were centrifuged, resuspended in RPMI w/o phenol red and LysoTracker® Red fluorescence was quantified on a BD FACSCanto II platform using the PE filter setting.

[3] = tested on: BE(2)-C cells; experiment: Flow cytometric quantification of intracellular doxorubicin accumulation, BE(2)-C; format: cell-based, human; conditions: for intracellular doxorubicin after co-treatment: 48 h, bufexamac 30 µM, tubastatin A 7.5 µM, tubacin 7.5 µM
Protocol: (§1) For flow cytometric quantification of intracellular doxorubicin after HDAC6/10 inhibition, BE(2)-C, SK-N-AS, IMR-32, HAP1 wild type and HDAC10 knockout cells were seeded in 6-well dishes at a density of 1.5 ∗ 10^5 cells/well (BE(2)-C and SK-N-AS, HAP1) and 3 ∗ 10^5 cells/well (IMR-32). Cells were treated with 25 ng/ml, 50 ng/ml, 100 ng/ml or 1 µg/ml doxorubicin, respectively, for 3–48 h (see respective figure legend). Where indicated, cells were co-treated with HDAC6/10 or lysosomal inhibitors. In case of co-treatment with vacuolin-1, vacuolin-1 was directly added to cells under doxorubicin treatment 1 h or 24 h prior to analysis. Flow cytometric quantification of intracellular doxorubicin after HDAC6, HDAC10 or P-glycoprotein knockdown in BE(2)-C cells was performed 5 days (P-glycoprotein) or 6 days (HDAC6/10) after transfection with siRNA. To that end, cells were seeded 3–4 days after transfection into 6-well dishes at 1.5 ∗ 10^5 cells per well and treated with 100 ng/ml doxorubicin +/− HDAC6/10 and lysosomal inhibitors for the last 24 h. After doxorubicin treatment, BE(2)-C, SK-N-AS, IMR-32 and HAP1 cells were washed with ice-cold RPMI w/o phenol-red and detached using Trypsin/EDTA for 3 minutes at 37 °C. Cells were centrifuged, resuspended in RPMI w/o phenol red and doxorubicin fluorescence was quantified on a BD FACSCanto II platform using the PE filter setting.

[4] = tested on: HDAC6; experiment: Western blot analysis of tubulin K40 acetylation as a marker for HDAC6 inhibition; format: cell-based, human; conditions: 24 h; bufexamac 30 µM, tubastatin A 7.5 µM, tubacin 7.5 µM
Protocol: Western blot analysis was performed as previously described. The following antibodies were used: anti-HDAC6 (sc-11420, Santa Cruz), anti-HDAC10 (H3413, Sigma), anti-acetylated histone H3 (06-911, Merck Millipore), anti-histone H3 (9715, Cell Signaling Technology, Cambridge UK), anti-LAMP-1 (H4A3, DHSB, Iowa City, IA, USA), anti-LAMP-2 (H4B4; Santa Cruz Biotechnology), anti-acetylated tubulin (6–11B-1; Sigma), anti-tubulin (2148, Cell Signaling Technology), anti P-glycoprotein (13978 S, Cell Signaling Technology) and anti-β-actin (clone AC-15; Sigma).

[5] = tested on: BE(2)-C cells; experiment: Pulse-chase analysis of doxorubicin secretion/retention; format: cell-based, human; conditions: 12 h pre-treatment, 1 µg/ml doxorubicin 3 h, washout, relative to t0
Protocol: To test whether HDAC10 inhibition prolonged the retention of doxorubicin, we used a pulse-chase approach in which BE(2)-C cells were pre-treated over night with HDAC6/10 inhibitors and then loaded with high concentrations of doxorubicin for 3 h (1 µg/ml). After doxorubicin washout, HDAC6/10 or HDAC6 inhibitors were re-added (t0), and intracellular doxorubicin fluorescence was measured at t0, as well as 3 h (t3h) and 6 h (t6h) after doxorubicin removal (Fig. 5h–k). […] In summary, secretion of doxorubicin was slowed down in case of HDAC6/10 inhibition but not by specific HDAC6 inhibition alone.
as §1

[6] = tested on: BE(2)-C cells; experiment: Flow cytometric analysis of cell surface LAMP-1 (lysosomal exocytosis); format: cell-based, human; conditions: 6 h tubastatin A 7.5 µM, bufexamac 30 µM, tubacin 7.5 µM, vacuolin-1 10 µM 1 h
Protocol: (§2) Cells were dissociated from dishes using non-enzymatic cell dissociation reagent for five minutes. Cells were counted using a ViCell XR automatic cell counter (Beckmann Coulter) and 2.5 ∗ 10^5 cells were transferred into a pre-cooled 96-well round bottom plate (TPP92097). Cells were stained for 1.5–2 hours on ice with primary anti P-gp (Biozol ABA-AB00143-1.1), LAMP-1 (H4A3, DHSB) antibody or isotype control (DLN-05794, Dianova, Barcelona, Spain) and for 1 hour with APC-labeled secondary antibody (Dianova 115-136-068). Cells were washed three times in FACS buffer (5% FBS in PBS) after each antibody incubation step. For evaluation of DNA double-strand breaks, cells were detached from dishes using trypsin, counted using a ViCell XR automatic cell counter (Beckmann Coulter) and transferred into a pre-cooled 96-well round bottom plate (4 ∗ 10^6 cells/well). Cells were fixed and permeabilized using the eBioscience^TM Foxp3/Transcription Factor Staining Buffer Set (Thermo Fisher Scientific). Cells were stained for 1.5 h with Phospho-Histone H2A.X (S139) primary antibody (CST #9718) and for 1 h in Alexa-488-labeled secondary antibody (ThermoFisher A-11008). Cells were washed three times in 1× permeabilization buffer after each antibody incubation step and fluorescence was quantified on a BD FACSCanto II platform.

[7] = tested on: BE(2)-C cells; experiment: Cell viability, automated trypan blue exclusion, BE(2)-C; format: cell-based, human; conditions: 100 ng/ml doxorubicin; for viability of BE(2)-C cells, single treatment: 7.5 µM tubastatin A or vacuolin-1 alone; for viability of BE(2)-C cells, combination with doxorubicin, 24 h, compared to doxorubicin alone: 10 µM verapamil or vacuolin-1
Protocol: Adherent cell lines were trypsinized and cells were pooled with corresponding supernatant, centrifuged and resuspended in 1.5 ml cell culture media. Cell viability was measured by automated trypan blue staining with the Vi-Cell XR Cell Viability Analyzer from Beckman Coulter (Krefeld, Germany).

[8] = tested on: BE(2)-C cells; experiment: Alkaline single cell gel electrophoresis assay (comet assay); format: cell-based, human; conditions: 18 h, tubastatin A 7.5 µM or doxorubicin 100 ng/ml
Protocol: BE(2)-C cells were treated with the HDAC6/10 inhibitor tubastatin A alone or in combination with the genotoxic drug doxorubicin (100 ng/ml doxorubicin, 7.5 µM tubastatin) for 18 h. Untreated cell aliquots and cells irradiated with 5 Gy (^137Cs radiation source, dose rate of 1 Gy min^−1) were used as negative and positive controls, respectively. Cells were subsequently analyzed by the alkaline comet assay as previously described[68],[69] with some modifications. In brief, the cells were mixed with 0.7% low-melting temperature agarose (Biozym), plated on two-well slides (Trevigen), and subsequently lysed overnight. Single cell electrophoresis was performed at 4 °C. Analysis of DNA damage was accomplished by fluorescence microscopy using a fully automated cell scanning system Metafer-4 (Metasystems) as described in[70]. DNA damage was assessed as “Tail DNA in %”. Statistical evaluation of two differently treated cell aliquots was performed with the Mann Whitney test using GraphPad Prism version 5.04 for Windows.

[9] = tested on: proliferating human fibroblasts; experiment: Flow cytometric analysis of cellular doxorubicin fluorescence, fibroblasts; format: cell-based; conditions: 100 ng/ml doxorubicin 48 h; tubastatin A 7.5 µM, vacuolin-1 10 µM, verapamil 10 µM
[10] = tested on: P-glycoprotein; experiment: Flow cytometric quantification of cell surface P-gp expression; format: cell-based, human; conditions: BE(2)-C; 6 h tubastatin A 7.5 µM; vacuolin-1 10 µM 1 h
Protocol: as §2

[11] = tested on: BE(2)-C cells; experiment: Flow cytometric analysis of γH2A.X staining (DNA double-strand breaks); format: cell-based, human; conditions: 24 h, tubastatin A 7.5 µM, vacuolin-1 10 µM; for DSBs (γH2A.X), treatment alone in the absence of doxorubicin: verapamil 10 µM
Protocol: as §2, with “Cells were stained for 1.5–2 hours on ice with primary anti P-gp (Biozol ABA-AB00143-1.1), LAMP-1 (H4A3, DHSB) antibody or isotype control (DLN-05794, Dianova, Barcelona, Spain) and for 1 hour with APC-labeled secondary antibody (Dianova 115-136-068).” left out, “Cells were stained for 1.5 h with Phospho-Histone H2A.X (S139) primary antibody (CST #9718) and for 1 h in Alexa-488-labeled secondary antibody (ThermoFisher A-11008).” left out

CCCC(CCC)C(=O)O [VPA, valproic acid]
inhibition of HDACs 1–3 (histone H3 acetylation) [1]: substantially inhibiting HDACs 1–3
lysosomal accumulation (LysoTracker staining) [2]: did not induce lysosomal accumulation

CN(C)Cc1c(C(=O)NCCOc2ccc(C(=O)NO)cc2)oc2ccccc12 [abexinostat]
concentrations at which intracellular doxorubicin amounts are increased ([3]; 100 ng/ml doxorubicin, 24 h co-treatment): greater than or equal to 500 nM
concentrations at which lysosomal accumulation is induced ([2]; 24 h treatment): ≥ 100 nM
EC50 ([2]; Homo sapiens, 24 h treatment, read-out: LysoTracker staining (lysosomal accumulation) EC50): 183 nM

CCCCOc1ccc(CC(=O)NO)cc1 [bufexamac]
HDAC6 inhibition (tubulin K40 acetylation) [4]: substantially inhibited HDAC6; also recorded: lowest potency against HDAC6
retention of intracellular doxorubicin 3 h and 6 h after doxorubicin removal [5]: retained higher levels of intracellular doxorubicin
cell surface LAMP-1 levels [6]: reduced surface LAMP-1 levels
intracellular doxorubicin after co-treatment ([3]; 100 ng/ml doxorubicin): increased intracellular doxorubicin
intracellular doxorubicin levels, short-term ([3]; 12 h pre-treatment with inhibitor, then 1 µg/ml doxorubicin for 3 h): increased intracellular doxorubicin levels
lysosomal accumulation (LysoTracker staining) [2]: caused lysosomal accumulation

COc1cccc2c1C(=O)c1c(O)c3c(c(O)c1C2=O)C[C@@](O)(C(=O)CO)C[C@@H]3O[C@H]1C[C@H](N)[C@H](O)[C@H](C)O1 [doxorubicin]
viability of BE(2)-C cells, single treatment [7]: did not substantially reduce cell viability
DSBs in comet assays, single treatment [8]: increased DSBs only trend-wise

O=C(CCCCCCC(=O)Nc1ccc([C@H]2O[C@@H](CSc3nc(-c4ccccc4)c(-c4ccccc4)o3)C[C@@H](c3ccc(CO)cc3)O2)cc1)NO [tubacin]
HDAC6 inhibition (tubulin K40 acetylation) [4]: substantially inhibited HDAC6
retention of intracellular doxorubicin 3 h and 6 h after doxorubicin removal [5]: had no effect
intracellular doxorubicin after co-treatment ([3]; 100 ng/ml doxorubicin): did not alter cellular doxorubicin content
lysosomal accumulation (LysoTracker staining) [2]: did not

Ic1cccc(/C=N/Nc2nc(N3CCOCC3)nc(N(c3ccccc3)c3ccccc3)n2)c1 [vacuolin-1]
intracellular doxorubicin in fibroblasts [9]: did not exhibit strongly increased intracellular doxorubicin
viability of BE(2)-C cells, single treatment [7]: no substantial effect
viability of BE(2)-C cells, combination with doxorubicin, 24 h, compared to doxorubicin alone [7]: strongly reduced cell viability
cell surface P-gp levels [10]: slightly increased surface P-gp levels
retention of intracellular doxorubicin 3 h and 6 h after doxorubicin removal [5]: retained higher levels of intracellular doxorubicin
cell surface LAMP-1 levels [6]: robustly reduced surface LAMP-1
doxorubicin accumulation with lysosomal exocytosis inhibitor ([3]; 100 ng/ml doxorubicin 48 h, 10 µM vacuolin-1): promoted doxorubicin accumulation
DSBs (γH2A.X), co-treatment with doxorubicin compared to doxorubicin alone ([11]; 100 ng/ml doxorubicin): increased doxorubicin induced DSBs
DSBs (γH2A.X), treatment alone in the absence of doxorubicin [11]: did not induce DSBs on its own
lysosomal accumulation (LysoTracker staining) [2]: increased LysoTracker staining

COc1ccc(CCN(C)CCCC(C#N)(c2ccc(OC)c(OC)c2)C(C)C)cc1OC (centres unmarked) [verapamil]
intracellular doxorubicin in fibroblasts [9]: strongly increase doxorubicin accumulation
viability of BE(2)-C cells, combination with doxorubicin, 48 h, compared to doxorubicin alone ([7]; 10 µM verapamil): not significant
viability of BE(2)-C cells, combination with doxorubicin, 24 h, compared to doxorubicin alone [7]: only slightly reduced cell viability
basal levels of doxorubicin in cells ([3]; 100 ng/ml doxorubicin 24 h, 10 µM verapamil): increased the basal levels of doxorubicin
DSBs (γH2A.X), treatment alone in the absence of doxorubicin [11]: did not induce DSBs
